Results reported in patent publication US5244905A, “N-substituted cycloalkyl and polycycloalkyl polyhydro-β-carboline-phenylalanine- and phenethylamine derivatives” (Warner-Lambert Company, priority 1991, dated 1993).

System: nucleus accumbens
Experiment: Locomotor activity after intra-accumbens amphetamine
Type: in vivo, rat (male Sprague Dawley (CD) Bradford)
Conditions: bilateral injection 20 μg into nucleus accumbens
Protocol: The compounds of the instant invention are useful as antipsychotic agents. Compounds are tested for their ability to reduce the effects of intra-accumbens amphetamine in the rat as described hereinafter.
Male Sprague Dawley (CD) Bradford strain rats are used. The rats are housed in groups of five at a temperature of 21°±2° C. on a 12 hour light-dark cycle of lights-on between 07 hours 00 minutes and 20 hours 00 minutes. Rats are fed CRM diet (Labsure) and allowed water ad libitum.
Rats are anesthetized with chloral hydrate (400 mg/kg SC) and placed in a Kopf stereotaxic frame. Chronically indwelling guide cannulae (constructedof stainless steel tubing 0.65 mm diameter held bilaterally in Parspex holders) are implanted using standard stereotaxic techniques to terminate 3.5 mm above the center of the nucleus accumbens (Ant. 0.4, Vert. 0.0, Lat. 1.6) or 5.0 mm above the central nucleus of the amygdala (Ant. 5.8, Vet. -1.8, Lat. ±4.5) (Atlas of De Groot, 1959). […]
Behavioral experiments are conducted between 07 hours 30 minutes and 21 hours 30 minutes in a quiet room maintained at 22°±2° C. […] Interruptions of the light beam are recorded every 5 minutes. […]
The abilities of the compounds of the invention to inhibit the hyperactivity caused by the injection of amphetamine into the nucleus accumbens of the rat is measured.

## CC(N)Cc1ccccc1 (stereo not shown) [amphetamine]
  locomotor activity: increase in locomotor activity
